Test results taken from paper PMC10065791 (eLife, 2023).

Columns and labels:
[1] = test system: virus pool selected to 5000 nM inhibitor; experiment: TZM infection assay, inhibitor-selected resistant virus pools; assay type: cell-based, HIV-1; conditions: Human immunodeficiency virus 1, read-out: EC50 Viral culture (5000 nM); final virus pool selected with the same inhibitor to 5000 nM; highest level recorded 100 µM
Procedure: In addition to the sequence of the terminally selected virus, we validated that selection occurred over the entire course of the selection protocol. […] In comparing the number of mutations present in cultures using the I84V versus the I50V pathway, we noted that on average there were more mutations in the I50V viruses at the intermediate drug concentration compared to the I84V viruses (100 nM, p=0.03), and this trend continued at the higher drug concentration.
An aliquot of 3 × 10^6 CEMx174 cells was incubated at 37°C for 2–3 hr with 250 µl of a virus stock generated from the HIV-1 infectious molecular clone pNL4-3. The culture volume was then brought to 10 ml with RPMI medium. […] After 48 hr and every 48 hr after, the cells were pelleted by centrifugation and 10 ml of fresh medium and inhibitors were added. When the culture had undergone extensive cytopathic effect (CPE) indicative of viral replication, the supernatant medium and the cells were harvested separately and stored at –80°C. The virus-containing supernatant was used to start the next round of infection, and after several rounds at the initial concentration, the inhibitor concentration was increased 1.5-fold at each subsequent round of virus passage.
PI dilutions were prepared by taking 10 µM stocked and performing a fivefold serial dilution using RPMI media (final drug concentration is […]). One dilution of drug was added to each well of a 24-well plate and repeated so each virus would have a full set of dilutions. Viruses for the assay were made by seeding 3 × 10^6 CEM cells in a 24-well plate and incubating with 250 µl of virus at 37°C for 2–3 hr before bringing the culture to 10 ml with RPMI media. After 48 hr, the medium was changed and repeated every 48 hr after until the culture had undergone CPE. Infected CEM cells were collected and diluted so that 1 ml of cells could be plated in each well containing a unique drug dilution. Then 24 hr later the virus supernatant was collected from each well followed by filtering through a […] then placed in –80°C. Viruses were thawed and added to 96-well plates in triplicate. TZM-bl cells were collected and diluted to a concentration of 2 × 10^5 cells/ml, 100 µl were added on top of the pre-plated viruses. Plates were kept in 37°C, 5% CO2 in an incubator for 48 hr. After 48 hr, the cells in the plates were lysed by removing the medium, washing two times with 100 µl PBS, and then lysed with 1× lysis buffer (made from 5× Promega Firefly Lysis Buffer). Plates were frozen for at least 24 hr and then thawed for 2 hr before analyzing with Promega Firefly Luciferase Kit on a luminometer. Data was analyzed with Prism 7 to fit sigmoidal dose–response curves.

[2] = target: T1, wild-type NL4-3 protease (Human immunodeficiency virus type 1 group M subtype B, UniProt P12497, Q495K); experiment: Ki assay (FRET enzyme inhibition), wild-type protease; assay type: biochemical, HIV-1; conditions: limit of detection 5 pM, read-out: Ki WT
T1 construct: the gene encoding the desired HIV-1 protease was subcloned into the heat-inducible pXC35 expression vector; made in house
Procedure: (§1) The highly mutated, resistant, protease variant genes were purchased on a pET11a plasmid with codon optimization for protein expression in Escherichia coli (Genewiz). A Q7K mutation was included to prevent autoproteolysis ([Rosé et al., 1993]). The expression, isolation, and purification of WT and mutant HIV-1 proteases used for enzymatic assays were carried out as previously described ([Henes et al., 2019]; [King et al., 2002]; [Özen et al., 2014]). Briefly, the gene encoding the desired HIV-1 protease was subcloned into the heat-inducible pXC35 expression vector (ATCC) and transformed into E. coli TAP-106 cells. Cells grown in 6 l of Terrific Broth were lysed with a cell disruptor twice, and the protein was purified from inclusion bodies ([Hui et al., 1993]). Inclusion bodies, isolated as a pellet after centrifugation, were dissolved in 50% acetic acid followed by another round of centrifugation at 19,000 rpm for 30 min to remove insoluble impurities. Size-exclusion chromatography was carried out on a 2.1 l Sephadex G-75 Superfine (Sigma Chemical) column equilibrated with 50% acetic acid to separate high molecular weight proteins from the desired protease. Pure fractions of HIV-1 protease were refolded using a tenfold dilution of refolding buffer (0.05 M sodium acetate at pH 5.5, 5% ethylene glycol, 10% glycerol, and 5 µM DTT). Folded protein was concentrated to 0.5–3 mg/ml and stored. The stored protease was used in KM and Ki assays.
(§2) Enzyme inhibition constants (Ki values) were determined as previously described ([Henes et al., 2019]; [Lockbaum et al., 2019]; [Matayoshi et al., 1990]; [Windsor and Raines, 2015]). Briefly, in a 96-well plate, inhibitors were serially diluted down from […] depending on protease resistance. All samples were incubated with 5 nM protein for 1 hr. A 10-amino acid substrate containing an optimized protease cleavage site ([Windsor and Raines, 2015]), purchased from Bachem, with an EDANS/DABCYL FRET pair was dissolved in 4% DMSO at 120 µM. Using a PerkinElmer Envision plate reader, 5 µl of the 120 µM substrate were added to the 96-well plate to a final concentration of 10 µM. […] Data was analyzed with Prism7.

[3] = target: T2, I50V/A71V mutant protease (Human immunodeficiency virus type 1 group M subtype B, UniProt P12497, A559V/I538V/Q495K); experiment: Ki assay (FRET enzyme inhibition), I50V/A71V protease; assay type: biochemical, HIV-1; conditions: I50V/A71V drug-resistant protease variant
T2 construct: the gene encoding the desired HIV-1 protease was subcloned into the heat-inducible pXC35 expression vector; made in house
Procedure: as §1, §2

[4] = target: T3, I84V mutant protease (Human immunodeficiency virus type 1 group M subtype B, UniProt P12497, I572V/Q495K); experiment: Ki assay (FRET enzyme inhibition), I84V protease; assay type: biochemical, HIV-1; conditions: I84V drug-resistant protease variant
T3 construct: the gene encoding the desired HIV-1 protease was subcloned into the heat-inducible pXC35 expression vector; made in house
Procedure: as §1, §2

Compound | EC50 [1] | Ki [2] | Ki [3] | Ki [4]
CC[C@H](C)CN(C[C@@H](O)[C@H](Cc1ccccc1)NC(=O)O[C@H]1CO[C@H]2OCC[C@H]21)S(=O)(=O)c1ccc(CO)cc1 [UMASS-3] | 14800 nM | < 0.005 nM | 0.0799 ± 0.0059 nM | 0.0099 ± 0.0027 nM
CC[C@H](C)CN(C[C@@H](O)[C@H](Cc1ccccc1)NC(=O)O[C@H]1CO[C@H]2OCC[C@H]21)S(=O)(=O)c1ccc2c(c1)OCO2 [UMASS-4] | 13700 nM | < 0.005 nM | 0.0329 ± 0.003 nM | 0.0105 ± 0.0018 nM
CC[C@H](C)CN(C[C@@H](O)[C@H](Cc1ccccc1)NC(=O)O[C@H]1CO[C@H]2OCC[C@H]21)S(=O)(=O)c1ccc2ncsc2c1 [UMASS-5] | > 100000 nM | < 0.005 nM | 0.0078 ± 0.0009 nM | 0.007 ± 0.0017 nM
CCC(CC)CN(C[C@@H](O)[C@H](Cc1ccccc1)NC(=O)O[C@H]1CO[C@H]2OCC[C@H]21)S(=O)(=O)c1ccc(OC)cc1 [UMASS-7] |  | < 0.005 nM | 0.0182 ± 0.003 nM | 0.0121 ± 0.0045 nM
CCC(CC)CN(C[C@@H](O)[C@H](Cc1ccccc1)NC(=O)O[C@H]1CO[C@H]2OCC[C@H]21)S(=O)(=O)c1ccc2c(c1)OCO2 [UMASS-9] | > 100000 nM | < 0.005 nM | 0.0423 ± 0.0026 nM | 0.0076 ± 0.0016 nM
